In patent US9090631B2, “Process for purifying cefotiam hydrochloride” (HAINAN LINGKANG PHARMACEUTICAL CO., LTD., priority 2011, dated 2015):
Counter-ions that a name gives are not always drawn.

Experiment: Solubility of cefotiam hydrochloride in recrystallization solvents
Format: physicochemical
From the text: The solubility of cefotiam hydrochloride is great in water but very small in ethanol, and even smaller in acetone. A mixture of water and ethanol or a mixture of water and acetone is used as the solvent to recrystallize cefotiam hydrochloride.

solubility (in ethanol): very small
solubility (in water): great
SMILES: CN(C)CCn1nnnc1SCC1=C(C(=O)O)N2C(=O)[C@@H](NC(=O)Cc3csc(N)n3)[C@H]2SC1 [cefotiam hydrochloride, (6R,7R)-7-[[(2-amino-4-thiazolyl)acetyl]amino]-3-[[1-[2-(dimethylamino)ethyl]-1H-tetrazol-5-yl]thiomethyl]-8-oxo-5-thia-1-azabicyclo[4,2,0]oct-2-ene-2-carboxylic acid dihydrochloride]
